# Measurements reported in publication PMC6156508, “GA-Hecate antiviral properties on HCV whole cycle represent a new antiviral class and open the door for the development of broad spectrum antivirals” (Scientific Reports, 2018).
# Where two headings read alike, the source gives them in different places. Where a SMILES comes first, the peptide text is derived from it. The star is where a group is joined. Galloyl = O=C(c1cc(O)c(O)c(O)c1)*
# How the values were obtained:
# Format in all cases: cell-based, hepatitis C virus
# [1] = test system: HCV subgenomic replicon SGR-Feo-JFH-1 (genotype 2a); assay: HCV subgenomic replicon replication, luciferase assay (genotype 2a)
# Excerpt: Figure 2 Hecate and its derivative-peptide effects on subgenomic HCV genotype 2a replication and hepatotoxicity. (A) Hecate. (B) Lys- Hecate. (C) GA-Hecate. (D) GA2-Hecate. (E) Acetyl-Hecate. (F) Glu-Hecate. Luciferase assays report HCV replication and MTT assays report the viability of Huh-7.5 cells harboring SGR-JFH-1 Feo under peptide treatment. Water was used as a negative control of virus replication inhibition and cell death (Control (−)), and Cyclosporine A was used as a positive control for virus replication inhibition (Control (+)). Red dotted lines represent the arbitrary threshold of 80% cell viability, and blue dotted lines represent the maximum inhibition presented by Hecate at the maximum safe concentration. Bars represent triplicates of the three independent assays. ***P < 0.01 vs control (−).
# Cell lines harboring subgenomic or genomic replicons were seeded at 5 × 10^3 cells /well on 96-well plates and the compounds were added 24 h post-seeding, in a concentration range between 2.5–20 μM. After 48 h of treatment, the cells were disrupted with 30 μL of passive lysis buffer (Promega, Madison, WI, USA), and luciferase substrate (Promega, Madison, WI, USA) was automatically added to each sample. Luciferase activity was measured using a luminometer (FLUOstar Omega/BMG LABTECH, Offenburg, BW, DE). The same assays were performed in Huh-7.5 cell lines harboring SGR-JFH1 Feo, S52/SG-neo or FL-J6/JFH-50C19Rluc2AUbi. Cyclosporine A (Sigma-Aldrich) at 1 μM was used as positive control of viral replication inhibition and dH2O as negative control.
# GA-Hecate toxicity and viral inhibition profile in 24, 48 and 72h post-treatment in […]
# GA-Hecate toxicity and viral inhibition capacity were evaluated at 24, 48 and 72h post-treatment. Tested concentrations were 1.25; 2.5; 5; 10; 20; and 40 µM. At the end of every incubation, cells were stained using MTT as previously described. Similarly, at every time point, treated cells were lysed using PLB and summited to Luminescence analysis as previously described. […]
# [2] = test system: HCVcc FL-J6/JFH-50C19Rluc2AUbi (genotype 2a); assay: HCVcc replication (full-length replicon, Renilla luciferase / protein); conditions: 20 μM; 48 h; viral RNA (luciferase) and protein levels
# Excerpt: Figure 4 GA-Hecate effect on HCVcc replication. (A) HCV RNA expression measured by the Renilla luciferase reporter gene. (B) HCV non-structural (NS5A) protein expression. GAPDH was used as an endogenous control. Water was used as a negative control of virus replication inhibition (Control (−)), and cyclosporine A was used as a positive control of virus replication inhibition (Control (+)). Bars represent triplicate samples of three independent assays. RLU - Relative light units. ***P < 0.001 vs Control (−); F = 273.2, df (between columns) = 5.
# Cell lines harboring subgenomic or genomic replicons were seeded at 5 × 10^3 cells /well on 96-well plates and the compounds were added 24 h post-seeding, in a concentration range between 2.5–20 μM. […] Luciferase activity was measured using a luminometer (FLUOstar Omega/BMG LABTECH, Offenburg, BW, DE). […]
# HCV (FL J6/JFH) infected cells were used to evaluate virus protein expression after peptide treatment. […] Total protein was quantified using a BCA assay (Thermo-Scientific) following the manufacturer’s instructions. […] Finally, the membrane was incubated for 1 minute with Pierce ECL Western Blotting Substrate (Thermo-Scientific-Pierce, Rockford, IL, USA), and the luminescence intensity was captured on a Chemi-Doc System (Bio-Rad, Amadora, PT). […]
# [3] = test system: JFH-1-infected Huh-7.5 cells; assay: HCV release/assembly evaluation (qPCR intra/extracellular HCV RNA); conditions: 24 h treatment; 5, 10 and 20 μM, not dose-dependent
# Method: Figure 6 GA-Hecate effect on HCV Release and infectivity. (A) HCV-infected Huh-7.5 cells were treated for 24 h with GA-Hecate. RNA was isolated and summited to qPCR for HCV 5′ UTR. Intracellular HCV expression was normalized by GAPDH, and extracellular HCV expression was calculated by absolute quantification. The difference between the intra and extracellular RNA expression represents the HCV release. Bars represent triplicate samples of three independent assays. Naringenin (200 μM) was used as a positive control of HCV release inhibition and water was a negative control of HCV release inhibition. ^aP < 0.001 vs Control (−), intracellular. ^bP < 0.001 vs Control (−), extracellular. F = 22.58, df (row factor) = 4. (B) Infectivity. HCV-infected Huh-7.5 cells were treated for 24 h with GA-Hecate, and then the supernatant was collected and used to infect naïve Huh-7.5 cells. The capacity of HCVcc particles to generate a new infection after GA-Hecate treatment is represented by the bars. […]
# JFH-1-infected Huh-7.5 cells were used to evaluate the GA-Hecate effect on virus release/assembly. […] After treatment, the intracellular and extracellular RNA content was isolated following the TRIzol reagent protocol and quantified by qPCR of the HCV 5′ UTR region (forward: 5′ CGGGAGAGCCATAGTGG; reverse, 5′ […]; probe: 5′-FAM-[…]-TAMRA-3) using TaqMan® Universal PCR Master Mix (Thermo Scientific, CA, USA).
smiles,measurement,setting,value
CC(C)C[C@H](NC(=O)[C@H](C)NC(=O)[C@H](CCCCN)NC(=O)[C@H](CCCCN)NC(=O)[C@H](CC(C)C)NC(=O)[C@H](C)NC(=O)[C@H](CCCCN)NC(=O)[C@H](CCCCN)NC(=O)[C@H](CC(C)C)NC(=O)[C@H](CCCCN)NC(=O)[C@H](CCCCN)NC(=O)[C@H](CC(C)C)NC(=O)[C@H](C)NC(=O)[C@H](CCCCN)NC(=O)[C@H](CCCCN)NC(=O)[C@H](CC(C)C)NC(=O)[C@H](C)NC(=O)[C@H](CCCCN)NC(=O)[C@H](CC(C)C)NC(=O)[C@H](C)NC(=O)[C@H](CC(C)C)NC(=O)[C@H](C)NC(=O)[C@H](Cc1ccccc1)NC(=O)c1cc(O)c(O)c(O)c1)C(N)=O [GA-Hecate] (Galloyl-FALALKALKKALKKLKKALKKAL-NH2),inhibition of viral replication,"[1]; 1.25 µM, 72 h",about 50%
same,"SI (selectivity index), ratio CC50/EC50","[1]; 48 h, genotype 2a replicon",3.13
same,SI 72 h post-treatment,[1]; 72 h,5
same,EC50,"[1]; Huh-7.5 harbouring SGR-Feo-JFH-1 genotype 2a, 48 h treatment, 2.5-20 μM, luciferase, triplicate in three independent assays, read-out: EC50 (50% effective concentration for HCV)",11.2 µM
same,EC50,"[1]; SGR-Feo JFH-1, 72 h, 1.25-40 µM, read-out: EC50 72 h post-treatment (IC50 in the supplement)",3.8 µM
same,inhibition of HCV replication at the maximum safe concentration,"[1]; genotype 2a replicon, 48 h, at each peptide's maximum safe concentration (Hecate 10 μM; Lys-, Glu-, Acetyl-Hecate 5 μM)",approximately 80%
same,inhibition of HCVcc replication,[2],approximately 85%
same,inhibition of virus release,[3],approximately 50%
